# Measurements: ChEMBL document CHEMBL1201862, “PubChem BioAssay data set” (2004)
# Active and inactive are the calls of the source.
# Legend:
# Vero = experiment: cells; type: functional; conditions: Chlorocebus sabaeus
# [1] = Luminescence Cell-Based Dose Retest to Confirm Inhibitors of Cancer Stem Cells. [Related pubchem assays (depositor defined):AID2717, AID2721]; type: functional; conditions: Homo sapiens
# [2] = viability of uninfected HEp-2 cells – cell-based, HTS, cytotoxicity control for RSV inhibitor project, dose response (AID 2410); type: functional; conditions: human respiratory syncytial virus
# [3] = off-target signal loss in HeLa-CEM21 co-culture – HeLa F-luc CTL cells, cherry-picked, counter-screen for HIV-1 Env fusion inhibitor project, dose response (AID 652040); type: functional, cell-based;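 note: potency for signal decrease marking cytotoxic or nonspecific inhibition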
# [4] = HIV-1 AD8 envelope cell-cell fusion blockers – cherry-pick, dose response (AID 652062); type: functional, cell-based;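 note: luciferase signal from cell-cell fusion driven by HIV-1 clade B AD8 Env; potency is for inhibitors of fusion seen as a drop in luminescence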
# [5] = NIH3T3 cell viability loss – ATP luminescence, mouse fibroblasts, counter-screen, dose response (AID 2010); type: functional, cell-based;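 note: cells exposed to compound for about 90 hours before reading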
# INS1 = experiment: INS-1E survival protection against cytokine death – cell-based, luminescence, retest, dose response (AID 449756); type: functional; conditions: Rattus norvegicus;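 note: cell death triggered by IL-1 beta plus TNF-alpha plus IFN-gamma mixture; protective hits raise ATP signal compared with cytokine alone wells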
# [6] = loss of viability in HepG2 cells – cell-based, CellTiter-Glo, cherry-picked, cytotoxicity control for Shn3 inhibitor project, dose response (AID 624134); type: functional
# [7] = Trypanosoma cruzi growth suppression in host cells – NIH3T3 host cells, beta-gal luminescence, confirmation (AID 2044); type: functional, cell-based;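 note: intracellular parasites grown in NIH/3T3 mouse fibroblasts as host cells; luminescent beta-galactosidase reporter signal from transgenic T. cruzi replicating inside host cells; inhibitors lower the luminescence signal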
# [8] = non-specific 3'UTR reporter inhibition in Clone20-Shn3RL – cell-based, Renilla luciferase, cherry-picked, counter-screen for Shn3 inhibitor project, dose response (AID 624133); type: functional
# [9] = reduction of Shn3 3'UTR-driven luciferase in osteoblasts – cell-based, Clone20 osteoblasts, firefly luciferase, cherry-picked, dose response (AID 624132); type: functional;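 note: firefly luciferase luminescence from reporter carrying the Shn3 3'UTR in osteoblasts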
# [10] = A Cell Based Secondary Assay To Explore Cytotoxicity of Compounds that Sensitize Mycobacterium Tuberculosis to Beta-Lactam Antibiotics.; type: functional
# [11] = blockers of bursicon-stimulated LGR2 cAMP reporter – cell-based, HEK293, CRE-luciferase reporter, cherry pick, set 2, dose response (AID 743343); type: functional;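 note: transfected cells were stimulated with diluted bursicon conditioned medium after compound addition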
# [12] = A549 cell cytotoxicity, dose response, cytotoxicity control, plate reader, cherry-pick, antagonist series (AID 743412); type: functional, cell-based
# [13] = toxicity toward HepG2 liver cells – cell-based, plate reader, cherry-pick, antagonist series, cytotoxicity control, dose response (AID 743416); type: functional
# [14] = viability loss in HEK293 cells – cell-based, plate reader, cherry-picked samples, cytotoxicity control, dose response (AID 743446); type: functional
# [15] = biological target: T1, Ubiquitin-conjugating enzyme E2 N (Homo sapiens, UniProt P61088); type: functional;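 note: Dose-response confirmation in a TR-FRET assay detecting UBC13-driven polyubiquitin chain formation, inhibition measured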
# T1 sequence (P61088 whole entry): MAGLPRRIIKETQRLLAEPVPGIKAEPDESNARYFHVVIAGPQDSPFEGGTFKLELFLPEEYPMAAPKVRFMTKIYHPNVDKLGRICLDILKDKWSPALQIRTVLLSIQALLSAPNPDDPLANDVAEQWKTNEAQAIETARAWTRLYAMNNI
# [16] = biological target: T2, Apoptotic protease-activating factor 1 (Homo sapiens, UniProt O14727); type: functional
# T2 sequence (O14727 whole entry): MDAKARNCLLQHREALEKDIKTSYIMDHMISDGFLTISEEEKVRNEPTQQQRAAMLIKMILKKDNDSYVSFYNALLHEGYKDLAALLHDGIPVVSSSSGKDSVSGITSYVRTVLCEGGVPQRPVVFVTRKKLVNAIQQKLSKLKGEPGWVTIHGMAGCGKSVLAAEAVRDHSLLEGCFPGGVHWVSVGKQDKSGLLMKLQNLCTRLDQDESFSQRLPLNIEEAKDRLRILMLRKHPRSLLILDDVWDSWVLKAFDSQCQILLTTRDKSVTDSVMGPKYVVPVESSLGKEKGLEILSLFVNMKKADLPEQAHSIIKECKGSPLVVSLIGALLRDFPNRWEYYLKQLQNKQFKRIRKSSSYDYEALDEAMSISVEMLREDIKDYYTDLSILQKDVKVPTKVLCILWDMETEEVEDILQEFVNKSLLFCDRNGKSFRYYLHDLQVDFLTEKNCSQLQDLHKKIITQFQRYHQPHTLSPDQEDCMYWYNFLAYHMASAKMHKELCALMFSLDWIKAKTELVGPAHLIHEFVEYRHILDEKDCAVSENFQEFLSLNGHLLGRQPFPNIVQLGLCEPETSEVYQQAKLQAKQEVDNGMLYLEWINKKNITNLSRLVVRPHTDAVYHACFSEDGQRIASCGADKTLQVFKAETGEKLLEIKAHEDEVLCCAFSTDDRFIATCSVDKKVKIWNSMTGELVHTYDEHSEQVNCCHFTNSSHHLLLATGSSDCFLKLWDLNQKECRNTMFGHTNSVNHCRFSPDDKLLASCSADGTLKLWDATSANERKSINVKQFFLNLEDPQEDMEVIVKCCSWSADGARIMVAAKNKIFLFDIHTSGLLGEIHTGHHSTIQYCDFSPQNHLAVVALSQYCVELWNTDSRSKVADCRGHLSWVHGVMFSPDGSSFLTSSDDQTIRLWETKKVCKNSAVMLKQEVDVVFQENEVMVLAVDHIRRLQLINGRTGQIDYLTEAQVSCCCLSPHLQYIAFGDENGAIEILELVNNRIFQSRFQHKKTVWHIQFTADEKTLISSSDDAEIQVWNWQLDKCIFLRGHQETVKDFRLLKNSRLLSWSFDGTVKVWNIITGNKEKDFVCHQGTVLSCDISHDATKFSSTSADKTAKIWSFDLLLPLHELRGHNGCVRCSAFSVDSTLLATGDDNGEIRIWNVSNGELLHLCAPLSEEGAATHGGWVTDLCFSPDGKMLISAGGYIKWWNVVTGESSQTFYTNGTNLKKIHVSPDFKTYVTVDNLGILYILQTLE
# [17] = blockers of HIV-1 ZM109 envelope-driven cell-cell fusion – HeLa effector, CEM target cells, luciferase, cherry-pick, dose response (AID 652058); type: functional, cell-based;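 note: luciferase signal from HIV-1 Env mediated cell-cell fusion of effector and target cells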
# [18] = blockers of HIV-1 envelope-mediated cell-cell fusion – cherry-pick, dose response (AID 652057); type: functional, cell-based
# [19] = DRD fibroblast viability loss – cell-based, non-viral oncogenic, luminescence, dose response (AID 1934); type: functional; conditions: Homo sapiens
# [20] = blockade of melanocortin 4 receptor signaling – cell-based, plate reader, cherry pick, counter-screen for LGR2 antagonist project, dose response (AID 743444); type: functional;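 note: transfected HEK 293 cells stimulated with alpha-MSH peptide; potency of inhibitors of the alpha-MSH evoked signal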
# [21] = biological target: T3, Microphthalmia-associated transcription factor (Homo sapiens, UniProt O75030); experiment: reducers of TRPM1 reporter luminescence, concentration series – cell-based, SK-MEL-5, cherry-picked, set 3, MITF inhibitor project, dose response (AID 493073); type: functional;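 note: SK-MEL-5 melanoma cells with luciferase driven by the MITF target TRPM1 promoter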
# T3 sequence (O75030 whole entry): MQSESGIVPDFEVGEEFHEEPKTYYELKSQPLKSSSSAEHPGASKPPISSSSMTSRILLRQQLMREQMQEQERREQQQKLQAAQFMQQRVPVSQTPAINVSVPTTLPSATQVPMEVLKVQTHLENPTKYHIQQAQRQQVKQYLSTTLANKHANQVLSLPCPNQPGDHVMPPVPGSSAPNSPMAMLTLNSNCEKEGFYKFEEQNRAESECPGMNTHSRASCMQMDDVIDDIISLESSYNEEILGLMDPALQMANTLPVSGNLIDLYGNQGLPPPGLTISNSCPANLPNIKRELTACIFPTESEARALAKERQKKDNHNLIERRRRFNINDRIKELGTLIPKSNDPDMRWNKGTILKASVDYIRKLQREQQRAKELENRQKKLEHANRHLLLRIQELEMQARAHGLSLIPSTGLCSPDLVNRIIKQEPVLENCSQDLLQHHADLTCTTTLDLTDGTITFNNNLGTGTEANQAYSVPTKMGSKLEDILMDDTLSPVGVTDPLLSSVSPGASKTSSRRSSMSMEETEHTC
# Caspase-6 = biological target: T4, Caspase-6 (Homo sapiens, UniProt P55212); experiment: inhibition of CASP6 peptide cleavage – biochemical, VEID-R110 fluorescence, cherry-pick, dose response (AID 720632)
# T4 sequence (P55212 whole entry): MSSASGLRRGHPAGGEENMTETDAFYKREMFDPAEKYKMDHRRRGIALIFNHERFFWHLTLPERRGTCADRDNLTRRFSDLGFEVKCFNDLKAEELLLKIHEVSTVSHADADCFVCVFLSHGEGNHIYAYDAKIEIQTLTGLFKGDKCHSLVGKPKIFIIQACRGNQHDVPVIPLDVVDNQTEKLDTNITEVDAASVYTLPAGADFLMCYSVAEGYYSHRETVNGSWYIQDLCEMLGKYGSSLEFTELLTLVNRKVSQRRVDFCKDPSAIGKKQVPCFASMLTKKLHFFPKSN
# BJ [22] = experiment: BJ-TERT-LT-ST fibroblast viability loss – cell-based, RAS-independent, luminescence, dose response (AID 1935); type: functional; conditions: Homo sapiens;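 note: BJ fibroblasts immortalized with TERT plus LT and ST oncogenes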
# BJ [23] = experiment: cells; type: functional, cell-based; conditions: Homo sapiens
# BJ [24] = experiment: BJ-TERT fibroblast viability loss – cell-based, RAS-independent, luminescence, dose response (AID 1933); type: functional; conditions: Homo sapiens
structure (smiles),measurement,setting,value
CCOc1ccc(/C=C/C(O)=C2/C(=O)N(C)C3(C)CC2c2ccccc2O3)cc1OC (centres undefined),CC50,Vero,11.6 µM (active)
same,AC50,[1],2.44 µM (active)
same,CC50,[2],2.92 µM (active)
CCOc1ccccc1CNc1ncnc2ccc(-c3c(C)noc3C)cc12,AC50,[3],> 70 µM (inactive)
same,AC50,[4],44.5 µM (active)
same,AC50,[1],21.6 µM (active)
CCOc1ccc(-[n+]2c(-c3ccccc3)cn3c2CCC3)cc1,EC50,[5],24.2 µM (active)
same,AC50,INS1,1.43 µM (active)
same,AC50,[6],49 µM (active)
same,EC50,[7],0.351 µM (active)
same,AC50,[8],0.392 µM (active)
same,AC50,[9],0.526 µM (active)
CC(C)CC(=O)NC(=S)Nc1ccc(N2CCN(C(=O)c3cccs3)CC2)cc1,CC50,[10],18.2 µM (active)
same,AC50,[6],41.2 µM (active)
same,AC50,[8],> 70 µM (inactive)
same,AC50,[9],2.54 µM (active)
c1cc2c(cc1C1CCCCC1)c1c3n2CCN=C3CCC1,CC50,Vero,> 25 µM (active)
CCOc1cc(/C=C/C(=O)Nc2ccc(C(=O)NCCN(CC)CC)cc2)ccc1OCC(C)C,AC50,[11],35 µM (active)
same,AC50,[12],7.77 µM (active)
same,AC50,[13],7.47 µM (active)
same,AC50,[14],7.83 µM (active)
same,IC50,[15],> 20 µM (inactive)
same,IC50,[16],28.5 µM (active)
COc1ccc(Cl)cc1NC(=O)CN(C1CCCCC1)S(C)(=O)=O,AC50,[3],4.33 µM (active)
same,AC50,[4],2.69 µM (active)
same,AC50,[17],5.49 µM (active)
same,AC50,[18],3.13 µM (active)
O=S(=O)(c1ccc(F)cc1)c1snnc1-c1ccccc1,AC50,[11],9.39 µM (active)
same,AC50,[12],11.1 µM (active)
same,AC50,[13],46.5 µM (active)
same,CC50,Vero,6.75 µM (active)
same,EC50,[19],7.55 µM (active)
same,AC50,[20],5.8 µM (active)
same,AC50,[14],4.15 µM (active)
same,AC50,[21],15.1 µM (active)
same,AC50,Caspase-6,6.26 µM (active)
same,EC50,BJ [22],6.51 µM (inconclusive)
same,EC50,BJ [23],6.66 µM (inconclusive)
same,EC50,BJ [24],4.69 µM (inconclusive)
